These results are taken from patent US20080118458A1, “Agent containing L-Carnitine or L-Carnitine derivatives and at least one other specific substance” (priority 2005, published 2008).

For test [1], the system named is Keratinocyte Growth Factor (KGF). Kind of test: Release of KGF into the medium of organotypical cell cultures (ELISA). In kind it is cell-based. The conditions noted are these: 72 h; individual substance 0.01%; untreated = 100. As to the method: (§1) Hepatocyte Growth Factor (HGF) and Keratinocyte Growth Factor (KGF) are important growth factors which are released from the dermal papillae in order to control the proliferation of the hair keratinocytes. A potentially growth-promoting and hair-strengthening substance can be assumed from an increase in the factors released into the medium. The release of HGF and KGF can be quantified with the help of commercially available ELISA kits. For this, organotypical cell cultures are incubated over 72 h with the substance mixture and the concentration of the growth factors in the medium is determined in the described manner.
In general terms: An ELISA detects its analyte on a solid surface through an enzyme-linked reagent.

Test [2] concerns Hepatocyte Growth Factor (HGF). Kind of test: Release of HGF into the medium of organotypical cell cultures (ELISA). In kind it is cell-based. The following applies: 72 h; individual substance 0.01%; untreated = 100. As to the method:
as §1

As for `C[N+](C)(C)C[C@H](O)CC(=O)[O-].O=C(O)C(O)C(O)C(=O)O` [Carnitine tartrate, L-carnitine tartrate], the “KGF mean [%] (standard deviation)” value in test [1] was 108 (8) %. Besides, in test [2], the “HGF mean [%] (standard deviation)” value was 100 (42) %.
The corresponding values for `NCCS(=O)(=O)O` [Taurine, 2-aminoethanesulfonic acid] are 71 (7) % and 120 (21) %.
